Assay results: paper doi:10.1101/2025.03.13.643086, “Granzyme-targeting quenched activity-based probes for assessing tumor response to immunotherapy” (bioRxiv, 2025)

System: GzmB activity in 4T1 tumors
Format: in vivo, mouse
Experimental: Figure 5. In vivo imaging of GzmB activity in mouse tumor models. (A) Schematic illustration of the timeline of immunotherapy and real-time NIRF-imaging. (B) Measurement of tumor growth comparing immunotherapy (ICB combination)-treated vs. untreated mice. Data points are shown as mean with SD. (C) Whole animal 2D fluorescence images of immunotherapy-treated mice obtained after 2, 4, 8 and 24 h post-injection at Ex/Em: 640/680 nm. […] (D) Quantification of in vivo NIRF signals in the tumors. […] (F) Quantification of ex vivo NIRF signals in the organs (normalized to spleen). […] (G) Immunoblotting analysis of GzmB expression in tumor homogenates. Briefly, pieces of tumors were transferred to a flask containing 1 mL RIPA lysis buffer on ice and constantly grinded for 2 min. Homogenates were collected by centrifugation and 20 μg of proteins were analyzed by SDS-PAGE and immunoblotting. (H) Representative confocal microscopy images of tumor sections stained with DAPI (blue) and CD8α (green)/GzmB (yellow) antibodies and Cy5 (red) detection. (I) Fraction (%) of CD8+ cells in the tumors analyzed by flow cytometry. (J) Mean fluorescence intensity (MFI) of Cy5 signals determined by flow cytometry after dissociated tumors were treated with 10 (5 μM) for 2 h at 37 °C.
3-5 mice/group. For all studies, mice were monitored by daily observation and serial tumor measurements and body weights.
Mice were treated with 20 mg/kg BEC i.v., 10 mg/kg anti-PD1 i.p., 5 mg/kg anti-CTLA4 i.p. or a combination of 10 mg/kg anti-PD-1 and 5 mg/kg anti-CTLA4. All the treatments were administered into living mice bearing 4T1 tumor every three days for three times (q3dx3). Dosing was administered at 0.01 ml/g body weight. On day 9 post-treatment, the mice were injected with 2 nmol/g GzmB qABP i.v., followed by fluorescence imaging at 2, 4, 8, and 24 h. Following the last imaging time point, mice were euthanized, and tissues were collected for ex vivo imaging.
E. In vivo and ex vivo fluorescence imaging (FLI)
All fluorescence imaging (FLI) were performed using Xenogen IVIS Spectrum (Revvity Health Sciences, Inc., Hopkinton, Massachusetts), which was previously owned by PerkinElmer. Prior to in vivo or ex vivo FLI, quality control of the IVIS system was performed with XFM-2X fluorescent phantom mouse (Revvity Health Sciences, Inc., Hopkinton, Massachusetts). The total radiant efficiency of AF680 phantom was 1.44 x 109 ± 5.7 x 107 at 40% threshold for the entire study.
Both in vivo and ex vivo FLI of mice including dye phantom was performed with Ex/Em: 640/680 nm. The wavelength difference between excitation and emission was large enough to prevent signal contamination by mixing. The maximum exposure time was fixed at 120 seconds to avoid background noise. In vivo imaging used 8 binning, 2 f-stop, and 1.5 cm sample height, whereas ex vivo imaging used 8 binning, 2–4 f-stop, and 0.5 cm sample height. The quantified data are presented as radiant efficiency or normalized radiant efficiency by area. […]
Fixed/Permeabilized […]
cells were resuspended 100 µL 1x intracellular staining perm wash buffer and incubated with FITC-conjugated CD8 antibody (BioLegend #100706) at 0 °C for 1 h. After centrifugation, cell pellets were washed with 1x intracellular staining perm wash buffer (twice) and resuspended in the appropriate amount of cell staining buffer (BioLegend # 420201) and analyzed with flow […]

## CC[C@H](C)[C@H](NC(=O)CCCCCN1/C(=C/C=C/C=C/C2=[N+](CC)c3ccc(S(=O)(=O)O)cc3C2(C)C)C(C)(C)c2cc(S(=O)(=O)O)ccc21)C(=O)N[C@@H](CCC(=O)O)C(=O)N1CCC[C@H]1C(=O)NC(CS(=O)(=O)O)P(=O)(Oc1ccc(CCNC(=O)C2CCN(S(=O)(=O)c3ccccc3-c3c4ccc(=[N+]5CCc6ccccc65)cc-4oc4cc(N5CCc6ccccc65)ccc34)CC2)cc1)c1ccccc1 (some centres unmarked) [Compound 10, Cy5-IEPCya^PhP-QSY21]
12.5 nmol/100 μL i.v., 2 h post-injection, ICB combination-treated mouse
  in vivo NIRF signal at 2 h, mouse #61 (brightest): 7.26x10^9 p s^−1 cm^−2 sr^−1
50 nmol i.v., imaged at 2, 4, 8 and 24 h
  time post-injection of brightest NIRF signal within tumors: 2 h
50 nmol i.v., organs harvested 24 h post-injection
  tumor-to-background ratio (TBR), ex vivo, normalized to spleen, mouse #57: 15.18
50 nmol/100 μL i.v., 2 h post-injection, ICB combination-treated mouse
  in vivo fluorescence signal in tumor at 2 h, mouse #57 (highest): 4.02x10^10 p s^−1 cm^−2 sr^−1
Second highest signals in bladder (2 h in vivo) and kidneys (24 h ex vivo)
  clearance route of excess probe: cleared through the renal pathway
